Data on 28 compounds can be found in patent US20140206726A1 (priority 2011, published 2014).

Data set [1] is described as follows: Measurement of logP values by HPLC on reversed phase columns (EEC directive 79/831 Annex V.A8). To be noted: for LogP: method [a]: pH 2,7, 0.1% formic acid in water / acetonitrile, linear gradient 10% to 95% acetonitrile. The class given is physicochemical. The protocol: Measurement of logP values was performed according EEC directive 79/831 Annex V.A8 by HPLC (High Performance Liquid Chromatography) on reversed phase columns with the following methods:
^[a] Measurement of LC-MS was done at pH 2,7 with 0.1% formic acid in water and with acetonitrile (contains 0.1% formic acid) as eluent with a linear gradient from 10% acetonitrile to 95% acetonitrile.
Calibration was done with not branched alkan2-ones (with 3 to 16 carbon atoms) with known logP-values (measurement of logP values using retention times with linear interpolation between successive alkanones). lambda-maX-values were determined using UV-spectra from 200 nm to 400 nm and the peak values of the chromatographic signals.

For the next data set, the system named is Plasmopara viticola. Nature of the data set: Plasmopara test (grapevines) / preventive. It counts as in vivo. Particulars: grapevine plants, preventive spray, 10 ppm of active ingredient, evaluated 6 days after inoculation. The method, then:
Plasmopara Test (Grapevines)/Preventive
Solvent: 24.5 parts by weight of acetone • 24.5 parts by weight of dimethylacetamide
Emulsifier: 1 part by weight of alkylaryl polyglycol ether
To produce a suitable preparation of active compound, 1 part by weight of active compound is mixed with the stated amounts of solvent and emulsifier, and the concentrate is diluted with water to the desired concentration.
To test for preventive activity, young plants are sprayed with the preparation of active compound at the stated rate of application. After the spray coating has dried on, the plants are inoculated with an aqueous spore suspension of Plasmopara viticola and then remain for 1 day in an incubation cabinet at approximately 20° C. and a relative atmospheric humidity of 100%. The plant is subsequently placed for 4 days in a greenhouse at approximately 21° C. and a relative atmospheric humidity of approximately 90%.
The plants are then misted and placed for 1 day in an incubation cabinet.
The test is evaluated 6 days after the inoculation. 0% means an efficacy which corresponds to that of the untreated control, while an efficacy of 100% means that no disease is observed.

Another data set relates to Phytophthora infestans. The class given is in vivo. Particulars: tomato plants, preventive spray, 100 ppm of active ingredient, evaluated 7 days after inoculation.

As to `CC1=NOC(C)(C(=O)Nc2cccc(CON=C(c3ccccc3)c3nnnn3C)n2)C1` (stereo not drawn) [Example 1], in data set [1], the LogP was 2.84^[a].

`Cn1nnnc1C(=NOCc1cccc(NC(=O)C2CC(c3ccccc3)=NO2)n1)c1ccccc1` (stereo not drawn) [Example 2]: the LogP in data set [1] was 3.51^[a].

By chromatographic logP is commonly meant lipophilicity estimated from chromatographic retention. Regarding `Cn1nnnc1/C(=N\OCc1cccc(NC(=O)C2CC(c3ccccc3F)=NO2)n1)c1ccccc1` (stereo not drawn) [Example 3, 3-(2-fluorophenyl)-N-{6-[({[(Z)-(1-methyl-1H-tetrazol-5-yl)(phenyl)methylene]amino}oxy)methyl]pyridin-2-yl}-4,5-dihydro-1,2-oxazole-5-carboxamide], the figures for the Eff. % with Plasmopara viticola and in the data set on Phytophthora infestans were 74% and 93%, respectively. Further, in data set [1] (reversed phase HPLC columns, pH 2.7, HCOOH method, reported in preparation example), the chromatographic logP was found to be 3.5.

In the case of `Cc1nnnn1C(=NOCc1cccc(NC(=O)C2CC(c3ccccc3F)=NO2)n1)c1ccccc1` (stereo not drawn) [Example 4], the LogP in data set [1] is 3.59^[a]. The Eff. % with Phytophthora infestans amounted to 95%.

For `Cn1nnnc1C(=NOCc1cccc(NC(=O)C2(C)CC(c3ccccc3)=NO2)n1)c1ccccc1` (stereo not drawn) [Example 5], the LogP in data set [1] was 3.87^[a]. This compound gave an Eff. % in the data set on Phytophthora infestans of 89%.

On to `Cc1nnnn1C(=NOCc1cccc(NC(=O)C2(C)CC(c3ccccc3)=NO2)n1)c1ccccc1` (stereo not drawn) [Example 6], for which the Eff. % in the data set on Plasmopara viticola stood at 85%; in the data set on Phytophthora infestans, 95%. Also, the LogP in data set [1] is 3.94^[a].

Regarding `CC1=NOC(C)(C(=O)Nc2nc(CON=C(c3ccccc3)n3nnnc3C)cs2)C1` (stereo not drawn) [Example 7], the LogP in data set [1] was 2.73^[a].

Consider `Cc1nnnn1C(=NOCc1csc(NC(=O)C2CC(c3ccccc3)=NO2)n1)c1ccccc1` (stereo not drawn) [Example 8], for which the LogP in data set [1] is 3.35^[a]. The Eff. % in the data set on Phytophthora infestans was found to be 95%.

As to `CC1=NOC(C)(C(=O)Nc2nc(CON=C(c3ccccc3)c3nnnn3C)cs2)C1` (stereo not drawn) [Example 9], the LogP in data set [1] was 2.69^[a]. Also, in the data set with Phytophthora infestans, the Eff. % worked out at 85%.

As for `Cn1nnnc1C(=NOCc1csc(NC(=O)C2CC(c3ccccc3)=NO2)n1)c1ccccc1` (stereo not drawn) [Example 10], in data set [1], the LogP was 3.31^[a]. The compound further registered an Eff. % with Phytophthora infestans of 93%.

Turning to `Cn1nnnc1C(=NOCc1csc(NC(=O)C2CC(c3ccccc3F)=NO2)n1)c1ccccc1` (stereo not drawn) [Example 11], the LogP in data set [1] was 3.29^[a]. This compound also registered an Eff. % in the data set on Phytophthora infestans of 95%.

Consider `Cc1nnnn1C(=NOCc1csc(NC(=O)C2CC(c3ccccc3F)=NO2)n1)c1ccccc1` (stereo not drawn) [Example 12], for which the LogP in data set [1] is 3.31^[a]. In the data set on Phytophthora infestans, this compound showed an Eff. % of 95%.

For `Cn1nnnc1C(=NOCc1csc(NC(=O)C2(C)CC(c3ccccc3)=NO2)n1)c1ccccc1` (stereo not drawn) [Example 13], the Eff. % with Plasmopara viticola stood at 97%; in the data set with Phytophthora infestans, 100%. Further, the LogP in data set [1] was 3.6^[a].

For `Cc1nnnn1C(=NOCc1csc(NC(=O)C2(C)CC(c3ccccc3)=NO2)n1)c1ccccc1` (stereo not drawn) [Example 14], the Eff. % in the data set with Plasmopara viticola turned out to be 92%; in the data set on Phytophthora infestans, 95%. In data set [1], the LogP is 3.64^[a].

For the compound `Cn1nnnc1C(=NOCc1csc(NC(=O)C2CC(c3ccccc3Cl)=NO2)n1)c1ccccc1` (stereo not drawn) [Example 15], the LogP in data set [1] is 3.48^[a]. Besides, the Eff. % in the data set with Phytophthora infestans is on record as 90%.

With `CC1=NOC(C(=O)Nc2nc(CON=C(c3ccccc3)c3nnnn3C)cs2)C1` (stereo not drawn) [Example 16], the LogP in data set [1] was 2.35^[a]. This compound returned an Eff. % in the data set on Phytophthora infestans of 93%.

With `Cn1nnnc1C(=NOCc1csc(NC(=O)C2CC(c3cc(F)ccc3F)=NO2)n1)c1ccccc1` (stereo not drawn) [Example 17], the LogP in data set [1] is 3.39^[a]. In addition, the Eff. % in the data set with Phytophthora infestans was 95%.

In the case of `CC(C)C1=NOC(C(=O)Nc2nc(CON=C(c3ccccc3)c3nnnn3C)cs2)C1` (stereo not drawn) [Example 18], in data set [1], the LogP is 2.92^[a]. This compound displayed an Eff. % in the data set on Phytophthora infestans of 93%.

As to `CCC1=NOC(C(=O)Nc2nc(CON=C(c3ccccc3)c3nnnn3C)cs2)C1` (stereo not drawn) [Example 19], the LogP in data set [1] is 2.64^[a]. The compound further gave an Eff. % in the data set on Phytophthora infestans of 85%.

Turning to `Cn1nnnc1C(=NOCc1csc(NC(=O)C2CC(c3c(F)cccc3Cl)=NO2)n1)c1ccccc1` (stereo not drawn) [Example 20], the LogP in data set [1] is 3.44^[a]. In the data set with Phytophthora infestans, the Eff. % is reported as 93%.

For `COc1ccc(C2=NOC(C(=O)Nc3nc(CON=C(c4ccccc4)c4nnnn4C)cs3)C2)cc1` (stereo not drawn) [Example 21], the LogP in data set [1] is 3.25^[a]. In the data set with Phytophthora infestans, this compound showed an Eff. % of 85%.

With `Cc1nnnn1C(=NOCc1csc(NC(=O)C2CC(c3c(F)cccc3Cl)=NO2)n1)c1ccccc1` (stereo not drawn) [Example 22], the LogP in data set [1] was 3.48^[a]. For the same compound, in the data set with Phytophthora infestans, the Eff. % worked out at 90%.

For the compound `COc1ccc(C2=NOC(C(=O)Nc3nc(CON=C(c4ccccc4)n4nnnc4C)cs3)C2)cc1` (stereo not drawn) [Example 23], the LogP in data set [1] is 3.29^[a].

Turning to `Cc1nnnn1C(=NOCc1csc(NC(=O)C2CC(c3cc(F)ccc3F)=NO2)n1)c1ccccc1` (stereo not drawn) [Example 24], in data set [1], the LogP was 3.46^[a]. In the data set on Phytophthora infestans, this compound yielded an Eff. % of 93%.

As to `Cc1nnnn1C(=NOCc1csc(NC(=O)C2CC(C(C)C)=NO2)n1)c1ccccc1` (stereo not drawn) [Example 25], the LogP in data set [1] is 2.96^[a]. In the data set with Phytophthora infestans, this compound yielded an Eff. % of 85%.

On to `CCC1=NOC(C(=O)Nc2nc(CON=C(c3ccccc3)n3nnnc3C)cs2)C1` (stereo not drawn) [Example 26], for which the LogP in data set [1] was 2.68^[a].

Turning to `CC1=NOC(C(=O)Nc2nc(CON=C(c3ccccc3)n3nnnc3C)cs2)C1` (stereo not drawn) [Example 27], in data set [1], the LogP is 2.42^[a].

As to `Cc1nnnn1C(=NOCc1csc(NC(=O)C2CC(c3ccccc3Cl)=NO2)n1)c1ccccc1` (stereo not drawn) [Example 28], the LogP in data set [1] was 3.55^[a]. The same compound displayed an Eff. % with Phytophthora infestans of 90%.
